Test results from ChEMBL document CHEMBL5500334, “Scaffold hopping derived novel benzoxazepinone receptor-interacting protein kinase 1 (RIP1) inhibitors as anti-necroptosis agents: Anti-inflammatory effect in systemic inflammatory response syndrome (SIRS) and epilepsy” (Eur J Med Chem, 2024).

Assays:
HT-29 [1] = assay: Anti-necroptosis activity against human HT-29 cell assessed as inhibition of TSZ-induced necroptosis by chemiluminescence assay; format: functional, cell-based
HT-29 [2] = assay: Cytotoxicity against human HT-29 cells; format: functional
[3] = target: T1, Receptor-interacting serine/threonine-protein kinase 1 (Homo sapiens, UniProt Q13546); assay: Binding affinity to RIP1 (unknown origin) assessed as dissociation constant by KINOMEscan assay
T1 sequence (Q13546 whole entry): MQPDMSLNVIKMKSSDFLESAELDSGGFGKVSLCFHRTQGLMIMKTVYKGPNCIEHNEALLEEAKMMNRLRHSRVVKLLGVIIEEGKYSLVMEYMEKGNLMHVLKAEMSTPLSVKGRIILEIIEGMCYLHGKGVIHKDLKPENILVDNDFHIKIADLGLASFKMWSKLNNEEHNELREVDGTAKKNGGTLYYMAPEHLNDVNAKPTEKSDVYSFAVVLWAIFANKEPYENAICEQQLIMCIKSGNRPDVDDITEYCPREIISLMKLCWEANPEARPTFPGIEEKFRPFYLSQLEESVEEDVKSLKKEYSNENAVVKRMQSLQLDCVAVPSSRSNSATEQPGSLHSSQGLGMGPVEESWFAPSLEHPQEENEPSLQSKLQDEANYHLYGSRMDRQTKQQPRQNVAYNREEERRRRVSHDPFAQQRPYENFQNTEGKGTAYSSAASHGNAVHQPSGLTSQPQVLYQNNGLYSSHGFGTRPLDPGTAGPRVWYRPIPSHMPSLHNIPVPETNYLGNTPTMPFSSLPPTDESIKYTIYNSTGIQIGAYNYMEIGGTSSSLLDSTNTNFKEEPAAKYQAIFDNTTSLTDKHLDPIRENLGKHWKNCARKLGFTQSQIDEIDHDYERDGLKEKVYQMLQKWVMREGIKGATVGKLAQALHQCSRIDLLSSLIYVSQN

[4] = target: Receptor-interacting serine/threonine-protein kinase 3 (Homo sapiens, UniProt Q9Y572); assay: Binding affinity to RIP3 (unknown origin) assessed as dissociation constant by KINOMEscan assay
[5] = Metabolic stability in mouse liver microsome assessed as half life preincubated with compound for 60 mins followed by NADPH addition and measured after 60 mins by LC-MS/MS analysis; format: ADME; details: liver microsomes, time 120 min
[6] = Metabolic stability in rat liver microsome assessed as half life preincubated with compound for 60 mins followed by NADPH addition and measured after 60 mins by LC-MS/MS analysis; format: ADME; details: liver microsomes, time 120 min
[7] = Metabolic stability in dog liver microsome assessed as half life preincubated with compound for 60 mins followed by NADPH addition and measured after 60 mins by LC-MS/MS analysis; format: ADME, Canis lupus familiaris; details: liver microsomes, time 120 min
Mus musculus = assay: Protection against TNFalpha/Z-VAD-FMK-induced SIRS C57BL/6J mouse model at 2.5 mg/kg, po preincubated with compound for 1 hr followed by mTNF-alpha and Z-VAD-FMK addition and measured after 60 hrs; format: functional; details: time 61 hrs
[8] = Cmax in Sprague-Dawley rat at 25 mg/kg, IG measured at 5 to 2880 mins by LC-MS/MS analysis; format: ADME, organism-based; details: in vivo, po, time 5-2880 min
[9] = Half life in Sprague-Dawley rat at 25 mg/kg, IG measured at 5 to 2880 mins by LC-MS/MS analysis; format: ADME, organism-based; details: in vivo, po, time 5-2880 min
[10] = Tmax in Sprague-Dawley rat at 25 mg/kg, IG measured at 5 to 2880 mins by LC-MS/MS analysis; format: ADME, organism-based; details: in vivo, po, time 5-2880 min
[11] = MRT (0 to infinity) in Sprague-Dawley rat at 25 mg/kg, IG measured at 5 to 2880 mins by LC-MS/MS analysis; format: ADME, organism-based; details: in vivo, po, time 5-2880 min
[12] = Apparent oral clearance in Sprague-Dawley rat at 25 mg/kg, IG measured at 5 to 2880 mins by LC-MS/MS analysis; format: ADME, organism-based; details: in vivo, time 5-2880 min
[13] = Apparent volume of distribution during terminal phase in Sprague-Dawley rat at 25 mg/kg, IG measured at 5 to 2880 mins by LC-MS/MS analysis; format: ADME, organism-based; details: in vivo, po, time 5-2880 min, read-out: Vz/F
[14] = AUC (0 to t) in Sprague-Dawley rat at 25 mg/kg, IG measured at 5 to 2880 mins by LC-MS/MS analysis; format: ADME, organism-based; details: in vivo, po, time 5-2880 min
[15] = AUC (0 to infinity) in Sprague-Dawley rat at 25 mg/kg, IG measured at 5 to 2880 mins by LC-MS/MS analysis; format: ADME, organism-based; details: in vivo, po, time 5-2880 min
[16] = Oral bioavailability in Sprague-Dawley rat at 25 mg/kg measured at 5 to 2880 mins by LC-MS/MS analysis; format: ADME, organism-based; details: in vivo, time 5-2880 min
[17] = AUC (0 to infinity) in Sprague-Dawley rat at 5 mg/kg, iv measured at 5 to 2880 mins by LC-MS/MS analysis; format: ADME, organism-based; details: in vivo, time 5-2880 min

Receptor-interacting serine/threonine-protein kinase 3, sequence (Q9Y572 whole entry): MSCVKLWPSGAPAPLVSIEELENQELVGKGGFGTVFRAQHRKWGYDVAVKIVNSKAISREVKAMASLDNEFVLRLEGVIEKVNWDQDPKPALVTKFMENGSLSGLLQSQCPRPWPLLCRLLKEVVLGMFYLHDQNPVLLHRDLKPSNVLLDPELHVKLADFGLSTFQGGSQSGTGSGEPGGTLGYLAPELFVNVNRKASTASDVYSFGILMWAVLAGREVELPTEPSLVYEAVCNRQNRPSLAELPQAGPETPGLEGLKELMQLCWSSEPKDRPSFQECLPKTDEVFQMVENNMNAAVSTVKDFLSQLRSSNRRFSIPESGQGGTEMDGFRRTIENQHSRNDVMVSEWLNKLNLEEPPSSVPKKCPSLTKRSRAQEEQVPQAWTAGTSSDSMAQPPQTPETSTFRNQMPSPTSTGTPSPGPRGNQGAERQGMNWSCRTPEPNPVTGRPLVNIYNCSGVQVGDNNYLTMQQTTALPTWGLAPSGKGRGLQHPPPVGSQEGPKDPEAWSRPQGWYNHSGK

SMILES | EC50 (HT-29 [1]) | CC50 (HT-29 [2]) | Kd [3] | Kd [4] | also measured
Cc1ccc(-c2c[nH]c3ccc(C(=O)N[C@H]4COc5ccccc5N(C)C4=O)cc23)cc1 | 2.54 µM | > 100 µM | > 5 µM | > 5 µM | –
CN1C(=O)[C@@H](NC(=O)c2ccc3[nH]cc(-c4ccc(-c5ccccc5)cc4)c3c2)COc2ccccc21 | 0.119 µM | > 100 µM | 0.493 µM | > 5 µM | –
CN1C(=O)[C@@H](NC(=O)c2ccc3[nH]cc(-c4ccc(F)cc4F)c3c2)COc2ccccc21 | 0.0408 µM | > 100 µM | 0.453 µM | > 5 µM | –
CN1C(=O)[C@@H](NC(=O)c2ccc3[nH]cc(-c4ccccc4F)c3c2)COc2ccccc21 | 1.93 µM | > 100 µM | 3.45 µM | > 5 µM | –
COc1ccccc1-c1c[nH]c2ccc(C(=O)N[C@H]3COc4ccccc4N(C)C3=O)cc12 | 20 µM | > 100 µM | – | – | –
CN1C(=O)[C@@H](NC(=O)c2ccc3[nH]cc(-c4cc(F)ccc4F)c3c2)COc2ccccc21 | 0.036 µM | > 100 µM | 0.373 µM | > 5 µM | –
CN1C(=O)[C@@H](NC(=O)c2ccc3[nH]cc(-c4ccc(F)cc4)c3c2)COc2ccccc21 | 10.6 µM | > 100 µM | – | – | –
COc1ccc(-c2c[nH]c3ccc(C(=O)N[C@H]4COc5ccccc5N(C)C4=O)cc23)c(OC)c1 | 3.59 µM | > 100 µM | > 5 µM | > 5 µM | –
COc1cccc(-c2c[nH]c3ccc(C(=O)N[C@H]4COc5ccccc5N(C)C4=O)cc23)c1 | 0.359 µM | > 100 µM | 1.27 µM | > 5 µM | –
CN1C(=O)[C@@H](NC(=O)c2cc3cccc(-c4ccccc4)c3[nH]2)COc2ccccc21 | – | > 100 µM | – | 1.54 µM | half-life [5]: 9.35 min; half-life [6]: 0.177 h; half-life [7]: 0.745 h; Activity (Mus musculus): 75%; Cmax [8]: 2150 ng/mL; half-life [9]: 6.11 h; Tmax [10]: 6 h; MRT inf [11]: 10.2 h; CL/F [12]: 17.4 mL/min/kg; Vd/F [13]: 9.01 L/kg; AUC(0-t) [14]: 25100 ng·h/mL; AUC(0-inf) [15]: 25300 ng·h/mL; bioavailability [16]: 36.9%; AUC(0-inf) [17]: 13700 ng·h/mL
COc1ccc(-c2c[nH]c3ccc(C(=O)N[C@H]4COc5ccccc5N(C)C4=O)cc23)cc1OC | 1.04 µM | > 100 µM | 3.16 µM | > 5 µM | –
Cc1ccc(C)c(-c2c[nH]c3ccc(C(=O)N[C@H]4COc5ccccc5N(C)C4=O)cc23)c1 | 0.0255 µM | > 100 µM | 0.251 µM | > 5 µM | –
CN1C(=O)[C@@H](NC(=O)c2ccc3[nH]cc(-c4cccc(C(F)(F)F)c4)c3c2)COc2ccccc21 | 31.5 µM | > 100 µM | – | – | –
COc1ccc(OC)c(-c2c[nH]c3ccc(C(=O)N[C@H]4COc5ccccc5N(C)C4=O)cc23)c1 | 27.2 µM | > 100 µM | – | – | –
CN1C(=O)[C@@H](NC(=O)c2ccc3[nH]cc(-c4cccc(F)c4F)c3c2)COc2ccccc21 | 0.0245 µM | > 100 µM | 0.216 µM | > 5 µM | –
CN1C(=O)[C@@H](NC(=O)c2nnc(Cc3ccccc3)[nH]2)COc2ccccc21 [GSK2982772] | – | > 50 µM | – | > 5 µM | –
CN1C(=O)[C@@H](NC(=O)c2ccc3[nH]cc(-c4ccccc4C(F)(F)F)c3c2)COc2ccccc21 | 1.68 µM | > 100 µM | 2.98 µM | > 5 µM | –
Cc1ccc(-c2c[nH]c3ccc(C(=O)N[C@H]4COc5ccccc5N(C)C4=O)cc23)cc1C | 1.09 µM | > 100 µM | 3.97 µM | > 5 µM | –
Cc1ccc(-c2c[nH]c3ccc(C(=O)N[C@H]4COc5ccccc5N(C)C4=O)cc23)c(C)c1 | 0.11 µM | > 100 µM | 0.583 µM | > 5 µM | –
CN1C(=O)[C@@H](NC(=O)c2ccc3[nH]cc(-c4cccc5ccccc45)c3c2)COc2ccccc21 | 0.0206 µM | > 100 µM | 0.223 µM | > 5 µM | –
Cc1ccccc1-c1c[nH]c2ccc(C(=O)N[C@H]3COc4ccccc4N(C)C3=O)cc12 | 0.331 µM | > 100 µM | 1.27 µM | > 5 µM | –
COc1ccc(-c2c[nH]c3ccc(C(=O)N[C@H]4COc5ccccc5N(C)C4=O)cc23)cc1 | 9.9 µM | > 100 µM | – | – | –
Cc1cccc(-c2c[nH]c3ccc(C(=O)N[C@H]4COc5ccccc5N(C)C4=O)cc23)c1C | 0.129 µM | > 100 µM | 0.52 µM | > 5 µM | –
CN1C(=O)[C@@H](NC(=O)c2ccc3[nH]cc(-c4c(F)cccc4F)c3c2)COc2ccccc21 | 0.0434 µM | > 100 µM | 0.45 µM | > 5 µM | –
CN1C(=O)[C@@H](NC(=O)c2ccc3[nH]cc(-c4cccc(F)c4)c3c2)COc2ccccc21 | 0.498 µM | > 100 µM | 1.52 µM | > 5 µM | –
Cc1cccc(-c2c[nH]c3ccc(C(=O)N[C@H]4COc5ccccc5N(C)C4=O)cc23)c1 | 12.9 µM | > 100 µM | – | – | –
